Results: patent publication US6696456B1, “Beta disubstituted metalloprotease inhibitors” (The Procter & Gamble Company, priority 1999, dated 2004)

Columns and labels:
[1] = tested on: human subject suffering from osteoarthritis; test: Example B: oral capsule treatment of a subject with osteoarthritis; type: in vivo; conditions: capsule with 70 mg compound daily for 5 years, 90 kg human
Experimental: A capsule for oral administration, according to the present invention, is made comprising:
A human subject weighing 90 kg (198 lbs.), suffering from osteoarthritis, is treated by a method of this invention. Specifically, for 5 years, the above capsule, which contains 70 mg of the compound of Example 4, is administered daily to said subject.

[2] = tested on: human subject suffering from rheumatoid arthritis; test: Example A: oral tablet treatment of a subject with rheumatoid arthritis; type: in vivo; conditions: tablet with 15 mg compound, three tablets per day orally for 2 years, 60 kg human
Experimental: A tablet composition for oral administration, according to the present invention, is made comprising:
A human subject weighing 60 kg (132 lbs), suffering from rheumatoid arthritis, is treated by a method of this invention. Specifically, for 2 years, a regimen of three tablets per day is administered orally to said subject.

Row | Structure (SMILES) | erosion/fibrillation of the articular cartilage via x-ray, arthroscopy and/or MRI [1] | inflammation, mobility and pain at the end of the treatment period [2]
1 | CCS[C@H](c1ccccc1)[C@@H](NS(=O)(=O)c1ccc(-c2ccc(F)cc2)cc1)C(=O)O [Example 4, (2S,3R)-3-Ethylsulfanyl-2-(4′-fluoro-biphenyl-4-sulfonylamino)-3-phenyl-propionic Acid] | no further advancement of erosion/fibrillation of the articular cartilage | –
2 | COc1ccc(-c2ccc(S(=O)(=O)N[C@@H](C(=O)O)[C@H](OCc3ccc(C)cc3)c3nccs3)cc2)cc1 [Example 1, (2R,3S)-2-(4′ -Methoxy-biphenyl-4-sulfonylamino)-3-(4-methyl-benzyloxy)-3-thiazol-2-yl-propionic Acid] | – | reduced inflammation and improved mobility without concomitant pain
